# Measurements published in patent US20230372433A1, “NANOPARTICLE FOR ANTI-CANCER PEPTIDES AND USES THEREOF” (KING'S COLLEGE LONDON, priority 2020, published 2023).
# Experiments:
# [1] = test system: HMLER (human breast cancer bulk cell); assay: MTT cytotoxicity assay, HMLER; format: cell-based; conditions: 72 hr, MTT; read-out: IC50 HMLER
# [2] = test system: HMLER-shEcad (human breast cancer stem cell); assay: MTT cytotoxicity assay, HMLER-shEcad; format: cell-based; conditions: 72 hr, MTT; read-out: IC50 HMLER-shEcad
# [3] = test system: MCF-10A (human breast epithelial cell); assay: cells; conditions: read-out: IC50 MCF-10A; 72 hr, MTT
# Excerpt: HMLER (human mammary endothelial cancer cells), HMLER-shEcad (human mammary endothelial cancer stem cells), and MCF-10A (healthy human mammary endothelial) cells were maintained in Mammary Epithelial Cell Growth Medium (MEGM) with supplements and growth factors: bovine pituitary extract (BPE), hydrocortisone, human epidermal growth factor (hEGF), insulin, and gentamicin/amphotericin-B. HEK293T (human embryonic kidney cell), and U2OS (homo sapiens bone osteosarcoma) cells were maintained in Dulbecco's Modified Eagle's Medium (DMEM) with a final concentration of 10% fetal bovine serum. The cells were grown in T75 flask at 310 K in a humidified atmosphere containing 5% CO2.
# The colourimetric MTT (3-(4,5-dimethylthiazol-2-yl)-2,5-diphenyltetrazolium bromide) assay was used to determine the toxicity of the anti-cancer peptides and conventional anti-cancer drugs. 5×10^3 cells were seeded in each well of a 96-well microplate. The cells were incubated overnight. Elevated concentrations of the compounds (0, 0.1, 0.2, 0.4, 0.8, 1.6, 3.1, 6.3, 12.5, 25, 50 and 100 μM) were added and incubated for 72 hr with a total volume 200 μL. The stock solutions of the compounds were prepared as 5 mM solutions in DMSO and diluted using media or in pure water. The final concentration of DMSO in each well was either 0.5% or 0% and this amount was present in the untreated control. After 72 hr, 20 μL of a 4 mg/mL solution of MTT in PBS was added to each well, and the plate was incubated for an additional 4 hr. The MEGM/MTT mixture was aspirated and 100 μL of DMSO was added to dissolve the resulting purple formazan crystals. The absorbance of the solutions in each well was read at 550 nm wavelength. Absorbance values were normalized to either DMSO-containing or non DMSO-containing control wells and plotted as concentration of test compound versus % cell viability. ICso values were interpolated from the resulting dose dependent curves.
# The peptides were screened against several different human cell lines and their cytotoxicity were determined. Cell lines utilised include MCF-10A (human breast epithelial cell), HMLER (human breast cancer bulk cell), HMLER-shEcad (human breast cancer stem cell), HEK293T (human embryonic kidney cell), and U2OS (human bone osteosarcoma).
# [4] = test system: U2OS (human bone osteosarcoma); assay: MTT cytotoxicity assay, U2OS; format: cell-based; conditions: 72 hr
# [5] = test system: HEK293T (human embryonic kidney cell); assay: MTT cytotoxicity assay, HEK293T; format: cell-based; conditions: 72 hr, MTT; read-out: IC50 HEK293T
# [6] = Tryptophan fluorescent binding assay, POPC vesicles; conditions: 50 μM peptide, PBS pH 7.4
# Method: (§1) In brief, 50 μM peptides were fixed and incubated with titrated POPC vesicles (black) or 3POPC/1POPG vesicles (grey) at concentrations of 0, 12.5, 25, 50, 100, 250, 500, 1000, 2500, and 5000 μM in phosphate buffered saline (1X, pH 7.4). The lipid concentration that causes 50% peptide binding was determined using a tryptophan fluorescent binding assay and the values are shown as lipid per peptide.
# (§2) The lipids 1-palmitoyl-2-oleoyl-sn-glycero-3-phosphocholine (POPC), 1-palmitoyl-2-oleoyl-snglycero-3-phospho-(1′-rac-glycerol) (POPG) were purchased from Avanti Polar Lipids and dissolved in chloroform. Large unilamellar vesicles (LUVs) were produced by extrusion through 100 nm pore filter using an extruder and filters purchased from Avanti Polar Lipids.
# (§3) Peptides (50 μM) and POPC/POPG LUVs (600 μM) were prepared in 10 mM phosphate buffer (pH 7.0). The solutions were incubated and measured after 60 minutes. Excitation was fixed at 280 nm (slit 9 nm) and emission was collected from 300 to 450 nm (slit 9 nm). The spectra were recorded using a Synergy H1 Hybrid Multi-Mode Reader (FIG. 3A) and Cytation™ 5 Cell Imaging Multi-Mode Reader (FIG. 2) from BioTek and were averaged over 3 scans.
# (§4) Table 3 illustrates the lipid concentration-induced 50% peptide binding onto a liposome. 50 μM peptide was fixed and incubated with titrated lipid (POPC vesicles or 3POPC/1POPG vesicles) at concentrations of 0, 12.5, 25, 50, 100, 250, 500, 1000, 2500, and 5000 μM in phosphate buffered saline (1X, pH 7.4). The lipid concentration that causes 50% peptide binding was determined using tryptophan fluorescent binding assay and the values are shown as lipid per peptide. IN-terminus is free, C-terminus: —W—NH2.
# [7] = Tryptophan fluorescent binding assay, 3POPC/1POPG vesicles; conditions: 50 μM peptide, PBS pH 7.4
# Method: as §1, §2, §3, §4
# [8] = ANTS/DPX liposome leakage assay, POPC vesicles; format: biochemical; conditions: 0.5 mM vesicles
# Method: (§5) In brief, 0.5 mM POPC vesicles (grey) or POPC:POPG vesicles (ratio 3:1, black) were incubated with peptide concentrations of 0, 0.02, 0.04, 0.08, 0.16, 0.32, 0.64, 1.25, 2.5, 5, 10, and 20 μM in each A) hydrochloric acid-adjusted phosphate buffered saline (1X, pH 4.8) and B) phosphate buffered saline (1X, pH 7.4).
# as §2
# (§6) 5 mM ANTS (8-aminonaphthalene-1,3,6-trisulfonic acid, disodium salt) and 12.5 mM DPX (p-xylene-bis-pyridinium bromide) were entrapped in 0.1 μm diameter extruded vesicles with lipids. Gel filtration chromatography using a Sephadex G-100 (GE Healthcare Life Sciences Inc) was used to remove external free ANTS/DPX from LUVs with entrapped contents. LUVs were diluted to 0.5 mM and used to measure the leakage activity by addition of aliquots of peptides. Leakage was measured after 3 h incubation. 10% Triton was used as the positive control to measure the maximum leakage of the vesicle. Fluorescence emission spectra were recorded using excitation and emission wavelength of 350 nm and 510 nm for ANTS/DPX using a BioTek Synergy H1 Hybrid Multi-Mode Reader.
# (§7) Table 4 illustrates peptide concentration-induced 50 ANTS/DPX liposome leakage. 0.5 mM POPC and 3POPC/1POPG vesicles were fixed and incubated with titrated peptide concentration (0, 0.02, 0.04, 0.08, 0.16, 0.32, 0.64, 1.25, 2.5, 5, 10, and 20 μM) each in phosphate buffered saline (1X, pH 7.4) and hydrochloric acid-adjusted phosphate buffered saline (1X, pH 4.8). The values are shown as lipid per peptide. IN-terminus is free, C-terminus: —W—NH2.
# [9] = ANTS/DPX liposome leakage assay, 3POPC/1POPG vesicles; format: biochemical; conditions: 0.5 mM vesicles
# Method: as §5, §2, §6, §7
Sequence,IC50 [1] [µM],IC50 [2] [µM],IC50 [3] [µM],IC50 [4] [µM],IC50 [5] [µM],Lipid Concentration-induced 50% Peptide Binding (L/P) POPC Vesicle [6] [L/P],Lipid Concentration-induced 50% Peptide Binding (L/P) 3POPC/1POPG Vesicle [7] [L/P],Peptide Concentration-induced 50% ANTS/DPX leakage at pH 4.8 (L/P) POPC Vesicle [8] [L/P],Peptide Concentration-induced 50% ANTS/DPX leakage at pH 7.4 (L/P) POPC Vesicle [8] [L/P],Peptide Concentration-induced 50% ANTS/DPX leakage at pH 4.8 (L/P) 3POPC/1POPG Vesicle [9] [L/P],Peptide Concentration-induced 50% ANTS/DPX leakage at pH 7.4 (L/P) 3POPC/1POPG Vesicle [9] [L/P]
GLLDLLHLLLEAAG [DHE],3.75 ± 0.92,2.8 ± 0.14,22.7 ± 4.31,17.2 ± 1.06,11.1 ± 1.91,1.00,0.72,58,566,469,581
GLLDLLHLLLKAAG [DHK],1.75 ± 0.49,1.02 ± 0.12,5.05 ± 1.34,20.4 ± 2.05,7.3 ± 0.42,0.20,0.38,47,747,183,469
GLLDLLKLLLEAAG [DKE],2.1,1.57 ± 0.33,4.75 ± 0.49,9.93 ± 0.25,7.8 ± 1.41,0.56,0.46,21,747,469,411
GLLDLLKLLLHAAG [DKH],3.45 ± 0.07,2.8 ± 0.28,7.05 ± 0.21,21.1 ± 3.01,6.15 ± 1.34,10.00,0.46,41,614,58,274
GLLDLLKLLLKAAG [DKK],1.95 ± 0.35,1.2 ± 0.14,2.57 ± 0.52,10.4 ± 1.7,3.4 ± 0.28,2.75,6.88,47,463,227,156
GLLELLHLLLKAAG [EHK],1.35 ± 0.35,0.71 ± 0.13,3.6 ± 0.99,25,5.35 ± 0.07,0.56,0.42,55,981,117,505
GLLELLKLLLEAAG [EKE],1.8 ± 0.28,1.3 ± 0.14,8.8,8 ± 0.71,5.15 ± 0.21,2.75,1.63,75,738,438,657
GLLELLKLLLHAAG [EKH],2.75 ± 0.07,2.18 ± 0.31,7.9 ± 0.42,23.8 ± 0.81,6.65 ± 1.34,0.75,0.19,55,608,88,365
GLLELLKLLLKAAG [EKK],1.72 ± 0.21,1.19 ± 0.4,1.7 ± 0.11,12.2 ± 1.84,3.35 ± 0.49,1.50,0.63,60,1095,219,235
GLLHLLELLLEAAG [HEE],6.5 ± 0.71,4.95 ± 0.49,58 ± 41,47.5 ± 11,10.2 ± 0.2,0.58,0.50,100,876,122,792
